Assay results published in patent US20130172324A1, “METHOD FOR TREATING CARDIOVASCULAR DISEASES USING RHO KINASE INHIBITOR COMPOUNDS” (priority 2008, published 2013).
pIC50: −log10 of the molar value. “Also recorded” adds a separate entry of the source.

Columns and labels:
rat trachea rings = assay: Tracheal relaxation assay (carbachol precontracted rings); conditions: for Percentage of carbachol-induced contraction at 1 μM compound, Avg % / Percentage of carbachol-induced contraction at 10 μM compound, Avg %: 1 μM carbachol; for pIC50: Rattus norvegicus, read-out: IC50 Avg; for Trachael Ring Contraction, %: average percentage of carbachol-induced rat tracheal ring contraction at 1 μM of test compound;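 for all read-outs here: isometric tension of rat tracheal rings in Krebs buffer with 1 µM indomethacin, compounds added cumulatively at 30 min intervals, basal tension subtracted, fit to Hill equation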
Protocol: The effects of compounds to induce relaxation of pre-contracted rat trachealis were determined. […] Trachea were excised, cleaned of connective tissue and cut into cylindrical segments of 2-3 mm length. Two stainless steel wires were guided through the lumen of the tracheal ring. One wire was fixed in the tissue bath and the other was connected to a force transducer via surgical silk. […] Indomethacin (1 μM), a cyclooxygenase inhibitor, was added to the Krebs buffer and was present throughout the experiments. Contractile tensions were measured using an isometric force transducer (Grass Instruments) and signals were analyzed using specialized software (Chart v5.5, ADInstruments). The preparations were allowed to equilibrate at a resting tension of 0.3 to 0.5 gm prior to two challenges with 60 mM KCl to assess tissue viability. After washing, tissues were treated with 1 μM carbachol for 10 to 15 minutes to induce a contractile response. Test Compounds were added cumulatively to the bath every 30 minutes and reductions in tension were recorded. Basal tension was subtracted from all values and data were reported as a percentage of the maximal carbachol-induced contraction. Data were fit to the Hill equation using GraphPad Prism v5 software.

[1] = tested on: rat tracheal rings pretreated with vehicle or IL-1β and TNF-α; assay: Effect of inflammatory cytokines on tracheal relaxation; conditions: FIG. 7
Protocol: Male Sprague-Dawley rats weighing 301-325 gm were sacrificed by asphyxiation in a CO2 chamber. Trachea were excised, cleaned of connective tissue and cut into cylindrical segments of 2-3 mm length. Tissues were treated for 18 hours at 37° C. in F12 media with penicillin-streptomycin and 0.1% BSA alone or with 10 ng/ml IL-1β and 100 ng/ml TNF-α. Tissues were then washed free of cytokines with Krebs buffer. Contractile tensions were measured using an isometric force transducer (Grass Instruments) as described for Example 3 and signals were analyzed using specialized software (Chart v5.5, ADInstruments). Tissues were treated with 300 nM carbachol for 10 to 15 minutes to induce a contractile response. Test Compounds were added cumulatively to the bath every 30 minutes and reductions in tension were recorded. Basal tension was subtracted from all values and data were reported as a percentage of the maximal carbachol-induced contraction. Data were fit to the Hill equation using GraphPad Prism v5 software.

[2] = tested on: ova-sensitized, ova-challenged mice; assay: Bronchodilator assay in ovalbumin-sensitized mice (Penh, methacholine); format: in vivo, mouse; conditions: for log10AUC (penh): bronchodilator dosing paradigm
Protocol: Male BALB/c mice were ordered from Charles River Laboratories (Raleigh, N.C.). The animals were approximately 19 to 21 grams at time of receipt. Upon arrival, the animals were randomized into groups of five males per cage and assigned to a dosing group. Animals were quarantined for 7 days under test conditions. They were observed daily for general health status and ability to adapt to the water bottles.
Animals were sensitized on day 0 and 14 of study by an intraperitoneal injection with 20 μg of ovalbumin (ova) and 2.0 mg aluminum hydroxide (alum) which initiates the development of a specific T-helper (Th) cells type 2 resulting in asthmatic animals. One group of animals received an injection of saline to use as non-asthmatic control animals. All animals were challenged with aerosolized 1% ova once daily for 25 minutes on days 28, 29, and 30 (Zosky, et al. Respiratory Research. 2004; 5:15). Aerosol challenge consists of using an Aerogen Aeroneb nebulizer and controller with a particle size of 4-6 μm mass median aerodynamic diameter (MMAD) with a distribution of 400 μl per minute. This aerosol challenge is necessary to target the Th2-driven allergic inflammation in the lower airways.
The test compounds and the control vehicle were administered to animals on the day of airway hyperreactivity evaluation 30 minutes to 1 hour before the evaluation to determine the bronchodilator effects of the compounds according to the bronchodilator dosing paradigm (FIG. 8). Compounds were administered p.o. (orally), i.p. (intraperitoneally) at 15 μMol/kg unless otherwise noted (Table 6). Alternatively, compounds were administered i.t. (intratracheally) at varying doses as shown (FIG. 9). On day 32 of the experiment, airway hyperreactivity was evaluated by placing conscious, unrestrained animals in a whole body plethysmometer (Buxco Wilmington, N.C.) and exposing them to escalating doses of nebulized methacholine, a known bronchial constrictor which acts through the muscarinic receptors of the lungs, (doses: 0.325-50 mg/ml). Exposure to the methacholine doses consisted of a 3 minute period during which a nebulizer was aerosolizing the methacholine and an additional 3 minute period following the cessation of nebulization. Over this 6 minute period, the plethysmometer monitors and generates numerical values for all parameters of the breath pattern. Enhanced pause (Penh), a unitless index of airway hyperreactivity, is derived from the expiratory side of the respiratory waveform measured via the plethysmograph and is used as an indirect measure of airway resistance and hyperreactivity. […] Following the methacholine dose response, all animals were anesthetized, bled and euthanized.
Within each experiment, a mouse was given a single compound and exposed to increasing doses of methacholine [0 (baseline), 0.375, 0.75, 1.5, 3, 6, 12, 25, 50 mg/ml]. The Penh value at each of the dose levels of methacholine represents the 6-minute average response. Change from baseline (CFB) in Penh was calculated at each methacholine dose and the area under the curve (AUC) for these CFB values was calculated using the trapezoidal rule. This same approach was applied for each mouse across multiple experiments.
For statistical analyses, a linear mixed-effects model where the response was the log 10 transformed value of AUC described above was used. Data from equal experimental conditions across experiments performed on different days were pooled for statistical analysis and data reporting. The various compounds were compared adjusting for the log 10-transformed baseline value of Penh and the chamber (1 of 10) of the plethysmometer each mouse was contained in during an experiment. A random intercept for each experiment was assumed to account for possible similarities of the results obtained from a given experiment (i.e., as a “blocking effect”). […] Computations were performed using PROC MIXED (SAS Version 9.1). […]

[3] = tested on: ova-sensitized, ova-challenged mice; assay: In vivo anti-inflammatory assay in ovalbumin-sensitized mice (BALF eosinophils and cytokines); set-up: species or system mouse
From the text: A mouse model of asthma via ovalbumin sensitization was created as described in Example 23. The anti-inflammatory dosing paradigm (FIG. 10) was utilized to evaluate the anti-inflammatory effects of experimental compounds. The anti-inflammatory dosing paradigm consists of dosing the animals once a day starting on day 27 and finishing on either day 30 or 31 (1 hr prior to the aerosolized ovalbumin challenges on days 28 to 30) but not on day 32 when hyperreactivity evaluation occurs.
Bronchoalveolar lavage fluid (BALF) was collected by infusing 3.0 ml of saline with 10% fetal calf serum into the lungs via the trachea and then withdrawing the fluid. The total amount of cells/ml of BALF fluid was determined via manual cell count on hemocytometer. The BALF was centrifuged, supernatant removed and analyzed for cytokine concentrations as described below, and cell pellet reconstituted in 500 μL of fluid. Cytospin slides were prepared from the cell pellet using 100 μL of fluid and spinning samples for 5 minutes at 5000 rpms in a cytospin centrifuge. Following Hema3 stain, relative percentages of individual leukocytes were determined on a 200 cell count for each sample. The final concentration of individual leukocyte cell types per ml of BALF was determined by multiplication of the relative percentage of individual leukocytes with the total amount of cells/ml of BALF fluid.
The concentrations of cytokines in the BALF samples were determined using commercially available Bio-plex kits (Bio-Rad) for the detection of mouse IL-5, IL-13, and Eotaxin. The analysis of cytokine levels was measured using the Bio-Plex 200 (Bio-Rad) system according to the manufacturer's instructions.

LPS-challenged mice = assay: LPS-induced neutrophilia and cytokine production assay; format: in vivo, mouse; conditions: for IL-1β levels in BALF: intratracheal administration, LPS-challenged mice, FIG. 18
Protocol: Male BALB/c mice, approximately 19 to 21 grams, were ordered from Charles River Laboratories (Raleigh, N.C.). All animals were challenged with aerosolized LPS (10 μg/ml) for 25 minutes on study day 0. LPS aerosol was generated using an Aerogen Aeroneb nebulizer and controller providing a flow of 400 μl/min and a particle size of 2-4 μm MMAD. Rolipram was administered i.p at 20 mg/kg. […] Four hours following LPS challenge, BALF was collected using a total of 3 ml of 0.9% sodium chloride containing 10% fetal calf serum. Total cell counts were determined using the Coulter Counter. For differential evaluations, BALF was centrifuged and cytospin slides prepared and stained with Hema3 stain. Manual leukocyte counts were then completed on 200 cells. The final concentration of individual leukocyte cell types per ml of BALF was determined by multiplication of the relative percentage of individual leukocytes with the total amount of cells/ml of BALF fluid. The concentration of IL-1β in the BALF samples was determined using commercially available Bio-plex kits (Bio-Rad). The analysis of cytokine levels was measured using the Bio-Plex 200 (Bio-Rad) system according to the manufacturer's instructions.

[4] = Rat oral pharmacokinetics (plasma); format: in vivo
Protocol: Plasma (EDTA K2 anticoagulant) was collected from male, cannulated, CD Sprague Dawley rats to determine the pharmacokinetics of formulations containing compound inhibitors of Rho kinase. Each animal was dosed orally with a 4 ml/kg solution or suspension of each test compound in 10 mM acetate buffered saline, pH 4.5 at a final concentration range of 20-30 μmol/kg. Blood was collected at 0.25, 0.5, 1, 2, 4, 6, 8, and 24 hours. Plasma samples were assayed for the concentration of the test compound using an on-line, solid phase extraction LC/MS/MS analysis system.
Samples were analyzed on a QSTAR Elite, hybrid quadrupole time-of-flight mass spectrometer (Applied Biosystems, Framingham, Mass.) coupled with a Symbiosis Pharma integrated, on-line SPE-HPLC system (Spark Holland Inc., Plainsboro, N.J.). Analyst QS 2.0 software was used for instrument control, data acquisition and processing. […] Mobile Phase A consisted of 0.1% ammonium hydroxide in water and Mobile Phase B consisted of 0.1% formic acid in acetonitrile. Pharmacokinetic analyses were performed using WinNonlin software version 5.2 (Pharsight Corporation, Mountain View, Calif.).
As determined from the plasma concentration versus time curves, the time to peak and peak exposure are represented by the values Tmax and Cmax, respectively. The AUC values (nM*hr) shown were calculated as the areas under the plasma concentration versus time curves from time zero through the time of the last observable value and represent the total exposure of the compound over the course of the study. Half-life values or the amount of time required for the plasma levels of the compound to decline to half the initial value are represented as t1/2.

[5] = tested on: ova-sensitized, ova-challenged mice; assay: Prevention of airway hyperreactivity development, anti-inflammatory dosing paradigm (Penh); format: in vivo, mouse; conditions: for airway hyperreactivity: intratracheal once a day, days 27 to 30 (1.091) or 27 to 31
ERK1 = biological target: T1, ERK1 (Homo sapiens, UniProt P27361); assay: Kinase panel screen (KinaseProfiler), ERK1; format: biochemical; conditions: 10 μM ATP
T1 construct: purchased Upstate, Millipore Bioscience Division (KinaseProfiler service)
T1 sequence (P27361 whole entry): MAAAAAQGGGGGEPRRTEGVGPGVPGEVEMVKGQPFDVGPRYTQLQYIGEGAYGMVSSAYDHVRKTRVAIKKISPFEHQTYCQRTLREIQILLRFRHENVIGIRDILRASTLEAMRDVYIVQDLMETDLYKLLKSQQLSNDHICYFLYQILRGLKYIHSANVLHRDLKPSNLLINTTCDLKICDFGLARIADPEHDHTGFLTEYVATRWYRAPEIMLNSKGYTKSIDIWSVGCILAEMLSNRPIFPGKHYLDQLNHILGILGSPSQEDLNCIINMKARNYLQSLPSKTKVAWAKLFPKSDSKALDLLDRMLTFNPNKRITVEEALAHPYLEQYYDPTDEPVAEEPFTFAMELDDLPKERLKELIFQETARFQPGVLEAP
Protocol: (§1) Compounds of Formulae I and II were examined for activity against a selected panel of kinases using the KinaseProfiler™ enzyme profiling services (Upstate, Millipore Bioscience Division). Percent kinase activity at 10 μM and 1 μM test compound and 10 μM ATP was determined against 40 wild-type recombinant human kinases according to Upstate's standard protocol: ASK1, BTK, CSK, c-RAF, GCK, GSK3β, IKKα, IKKβ, IRAK1, IRAK4, JNK1α1, JNK2α2, JNK3, ERK1, ERK2, MAPKAP-K2, MAPKAP-K3, MEK1, MKK4, MKK6, MKK7β, Mnk2, MSK1, PAK3, PDK1, PRAK, ROCK1, Rsk2, SAPK2a, SAPK2b, SAPK3, SAPK4, SRPK1, SRPK2, Syk, TAK1, TBK1, PI3-Kβ, PI3-Kγ, PI3-Kδ.

ERK2 = biological target: T2, ERK2 (Homo sapiens, UniProt P28482); assay: Kinase panel screen (KinaseProfiler), ERK2; format: biochemical; conditions: 10 μM ATP
T2 construct: purchased Upstate, Millipore Bioscience Division (KinaseProfiler service)
T2 sequence (P28482 whole entry): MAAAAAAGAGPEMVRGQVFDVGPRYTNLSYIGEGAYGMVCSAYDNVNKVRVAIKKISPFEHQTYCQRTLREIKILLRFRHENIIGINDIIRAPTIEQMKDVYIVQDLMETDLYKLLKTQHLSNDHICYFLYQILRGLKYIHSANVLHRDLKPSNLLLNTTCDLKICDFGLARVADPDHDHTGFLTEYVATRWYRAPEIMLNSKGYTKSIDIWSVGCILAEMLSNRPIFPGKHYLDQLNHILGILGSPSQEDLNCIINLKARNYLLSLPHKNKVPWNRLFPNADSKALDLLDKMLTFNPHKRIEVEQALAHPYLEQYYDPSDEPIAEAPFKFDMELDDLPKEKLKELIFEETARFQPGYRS
Protocol: as §1

[6] = rat, oral, 20-30 μmol/kg, plasma, mean of n = 3

Row | SMILES | Percentage of carbachol-induced contraction at 1 μM compound, Avg % (rat trachea rings) | Percentage of carbachol-induced contraction at 10 μM compound, Avg % (rat trachea rings) | pIC50 (rat trachea rings) | Trachael Ring Contraction, % (rat trachea rings) | log10AUC (penh) ([2]; 15 μmol/kg oral) | reduction in airway hyperresponsiveness ([2]; oral doses) | IL-1β levels in BALF (LPS-challenged mice) | airway hyperreactivity [5] | Percent inhibition, ERK1 (ERK1; 1 μM test compound) | Percent inhibition, ERK1 (ERK1; 10 μM test compound) | Percent inhibition, ERK2 (ERK2; 1 μM test compound) | Percent inhibition, ERK2 (ERK2; 10 μM test compound) | also measured
1 | CS(=O)(=O)Nc1cccc(CN2CCC[C@H](Nc3ccc4[nH]ncc4c3)C2)c1 [Compound 1.091, (S)-N-(3-((3-(1H-indazol-5-ylamino)piperidin-1-yl)methyl)phenyl)methanesulfonamide] | 35.4% | 14.3% | 6.99 | 35% | 2.2309 | did not yield a significant reduction | reduction |  |  |  |  |  | relaxation of tracheal rings, cytokine-pretreated tissues ([1]; 10 ng/ml IL-1β and 100 ng/ml TNF-α for 18 hours, 300 nM carbachol): fully efficacious; relaxation of tracheal rings, vehicle-pretreated tissues ([1]; 300 nM carbachol): fully efficacious; potency in cytokine-pretreated versus vehicle-pretreated tissues [1]: slightly more potent in cytokine-pretreated tissues; log10AUC (penh) ([2]; 5 μmol/kg intratracheal): 1.8127; log10AUC (penh) ([2]; 15 μmol/kg intraperitoneal): 2.0096; reduction in airway hyperresponsiveness ([2]; i.p. route, compared to oral dosing): enhanced reduction; bronchodilatory response ([2]; intratracheal administration): robust bronchodilatory response; eosinophils in BALF ([3]; dosed i.t. to day 30, anti-inflammatory dosing paradigm, FIG. 12): reduction of eosinophils; LPS-induced pulmonary neutrophilia influx (LPS-challenged mice; intratracheal dosing one hour prior to LPS challenge, FIG. 17): significant reduction; also recorded: dose-dependent inhibition; oral bioavailability ([4]; oral dosing): poor oral bioavailability; AUC (0-last) [4, 6]: BLQ; Cmax [4, 6]: BLQ; Tmax [4, 6]: BLQ; Vz_F [4, 6]: BLQ; t½ [4, 6]: BLQ
2 | NC(=O)Cn1ccc2cc(CN3CC[C@@H](Nc4cccc5cnccc45)C3)ccc21 [Compound 2.059, (R)-2-(5-((3-(isoquinolin-5-ylamino)pyrrolidin-1-yl)methyl)-1H-indol-1-yl)acetamide] |  |  |  |  |  |  | reduction | prevention of airway hyperreactivity | 37% | 4% | 56% | 12% | 
3 | c1cc2cc(CN3CCC[C@@H](Nc4ccc5[nH]ncc5c4)C3)ccc2o1 [Compound 1.131, (R)-N-(1-(benzofuran-5-ylmethyl)piperidin-3-yl)-1H-indazol-5-amine] | 37.4% | 14.2% | 6.61 | 37% | 2.0283 | statistically significant reduction |  |  |  |  |  |  | eosinophils per ml of BALF (airway eosinophil infiltration) ([3]; dosed orally to day 31, anti-inflammatory dosing paradigm, FIG. 11): reduced; airway hyperreactivity to methacholine ([5]; oral 15 μMol/kg once a day during days 27 to 31, methacholine on Day 32): prevention of airway hyperreactivity; plasma and lung tissue concentrations after oral dosing ([4]; oral dosing, refers to Table 13 and Table 15): high plasma and lung tissue concentrations
4 | OCCn1ccc2cc(CN3CC[C@@H](Nc4cccc5cnccc45)C3)ccc21 [Compound 2.066, (R)-2-(5-((3-(isoquinolin-5-ylamino)pyrrolidin-1-yl)methyl)-1H-indol-1-yl)ethanol] |  |  |  |  |  |  |  | prevention of airway hyperreactivity | 52% | 15% | 50% | 12% | 
